Laboratory results as given in patent publication US9102701B2, “17-hydroxy-17-pentafluoroethyl-estra-4,9(10)-diene-11-ethynylphenyl derivatives, methods for the production thereof and use thereof for treating diseases” (Bayer Intellectual Property GmbH, priority 2009, dated 2015).
Like-named read-outs stand apart in the source and are kept apart here.

Legend:
[1] = target: T1, human progesterone receptor A (Homo sapiens, UniProt P06401); assay: Progesterone receptor-antagonistic action in stably transfected SK-N-MC cells, PR-A, MMTV-LUC reporter; assay type: cell-based
T1 construct: expressed in transfected cells; host or cells: SK-N-MC human neuroblastoma cells, stably transfected with pRChPR-A-neo and pMMTV-LUC
T1 sequence (P06401 1-769 isoform P06401-2): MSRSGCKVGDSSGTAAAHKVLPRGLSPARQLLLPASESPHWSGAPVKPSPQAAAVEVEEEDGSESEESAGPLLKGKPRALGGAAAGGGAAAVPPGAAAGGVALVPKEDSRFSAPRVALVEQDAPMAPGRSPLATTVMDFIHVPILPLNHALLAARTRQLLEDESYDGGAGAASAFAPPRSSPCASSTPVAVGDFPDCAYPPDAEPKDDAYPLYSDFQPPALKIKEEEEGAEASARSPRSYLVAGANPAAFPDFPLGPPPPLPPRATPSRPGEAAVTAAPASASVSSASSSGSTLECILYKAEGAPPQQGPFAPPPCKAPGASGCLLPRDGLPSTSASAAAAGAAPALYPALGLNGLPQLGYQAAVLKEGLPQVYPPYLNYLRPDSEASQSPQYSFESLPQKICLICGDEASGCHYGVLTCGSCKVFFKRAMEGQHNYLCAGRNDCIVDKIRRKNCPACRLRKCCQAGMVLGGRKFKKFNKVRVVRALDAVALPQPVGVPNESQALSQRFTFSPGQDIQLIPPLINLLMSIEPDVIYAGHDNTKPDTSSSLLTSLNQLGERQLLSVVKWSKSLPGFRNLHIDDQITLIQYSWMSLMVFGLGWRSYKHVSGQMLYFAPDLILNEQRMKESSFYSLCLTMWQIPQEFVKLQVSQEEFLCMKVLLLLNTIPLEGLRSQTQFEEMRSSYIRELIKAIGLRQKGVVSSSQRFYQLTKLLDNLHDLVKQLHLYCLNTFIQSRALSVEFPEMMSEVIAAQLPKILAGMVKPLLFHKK
How it was run: (§1)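 SK-N-MC neuroblastoma cells stably expressing human PR-A or PR-B plus MMTV-LUC reporter, treated 24 h with compound (0.01 nmol/l upward). Antagonism measured against 0.1 nmol/l promegestone; luciferase in lysates as RLU, given as % efficacy and IC50 (agonism as EC50).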

[2] = target: T2, human progesterone receptor B (Homo sapiens, UniProt P06401); assay: Progesterone receptor-antagonistic action in stably transfected SK-N-MC cells, PR-B, MMTV-LUC reporter; assay type: cell-based
T2 construct: expressed in transfected cells; host or cells: SK-N-MC human neuroblastoma cells, stably transfected with pRChPR-B-neo and pMMTV-LUC
T2 sequence (P06401 1-933): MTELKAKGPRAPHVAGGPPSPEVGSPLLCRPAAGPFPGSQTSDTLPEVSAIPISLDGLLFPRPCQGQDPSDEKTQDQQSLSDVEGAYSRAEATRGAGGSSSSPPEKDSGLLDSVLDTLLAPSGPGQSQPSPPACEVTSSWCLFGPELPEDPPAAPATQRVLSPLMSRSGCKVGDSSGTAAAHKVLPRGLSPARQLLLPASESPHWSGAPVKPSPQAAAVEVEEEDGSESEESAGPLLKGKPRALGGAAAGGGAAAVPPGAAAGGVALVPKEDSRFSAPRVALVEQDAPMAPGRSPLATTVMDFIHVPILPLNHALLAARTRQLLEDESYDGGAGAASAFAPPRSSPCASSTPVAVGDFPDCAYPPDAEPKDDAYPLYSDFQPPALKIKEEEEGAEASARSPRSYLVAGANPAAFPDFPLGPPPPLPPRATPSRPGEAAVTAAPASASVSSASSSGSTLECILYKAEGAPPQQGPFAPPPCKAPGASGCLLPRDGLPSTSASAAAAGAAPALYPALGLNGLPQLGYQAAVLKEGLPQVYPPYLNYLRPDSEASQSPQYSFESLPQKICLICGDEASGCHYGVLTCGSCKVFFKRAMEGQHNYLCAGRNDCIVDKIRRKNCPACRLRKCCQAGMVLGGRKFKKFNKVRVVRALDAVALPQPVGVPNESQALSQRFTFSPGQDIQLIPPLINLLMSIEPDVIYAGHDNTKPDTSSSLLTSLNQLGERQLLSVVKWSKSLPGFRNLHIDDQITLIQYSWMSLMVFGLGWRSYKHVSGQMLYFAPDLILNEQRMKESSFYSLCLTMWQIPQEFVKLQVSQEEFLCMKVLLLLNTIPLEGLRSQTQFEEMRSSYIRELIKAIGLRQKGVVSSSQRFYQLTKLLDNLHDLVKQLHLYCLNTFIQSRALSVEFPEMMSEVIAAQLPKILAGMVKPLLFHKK
How it was run: as §1

| Structure (SMILES) | IC50 ([1]; read-out: IC50 PR-A) | IC50 ([2]; read-out: IC50 PR-B) | IC50 ([1]; antagonistic potency vs 0.1 nmol/l promegestone, SK-N-MC cells, 24 hours, read-out: IC50 PR-A) | IC50 [1] | IC50 [2] |
| --- | --- | --- | --- | --- | --- |
| COC(=O)C#Cc1ccc([C@H]2C[C@@]3(C)C(CC[C@@]3(O)C(F)(F)C(F)(F)F)C3CCC4=CC(=O)CCC4=C32)cc1 (stereo partly drawn) [Example 3, [4-((8S,11R,13S,14S,17S)-17-hydroxy-13-methyl-3-oxo-17-pentafluoroethyl-2,3,6,7,8,11,12,13,14,15,16,17-dodecahydro-1H-cyclopenta[a]phenanthren-1′-yl)phenyl]propynoic acid methyl ester] | – | – | – | 1.8 nM | 1.2 nM |
| C[C@]12C[C@H](c3ccc(C#CCNC(=O)Nc4ccc(N5CCCCC5)cc4)cc3)C3=C4CCC(=O)C=C4CC[C@H]3[C@@H]1CC[C@@]2(O)C(F)(F)C(F)(F)F [Example 43, 1-{3-[4-((8S,11R,13S,14S,17S)-17-hydroxy-13-methyl-3-oxo-17-pentafluoroethyl-2,3,6,7,8,11,12,13,14,15,16,17-dodecahydro-1H-cyclopenta[a]phenanthren-11-yl)phenyl]prop-2-ynyl}-3-(4-piperidin-1-ylphenyl)urea] | 0.8 nM | 0.9 nM | – | – | – |
| C[C@]12C[C@H](c3ccc(C#Cc4ccc(S(C)(=O)=O)cc4)cc3)C3=C4CCC(=O)C=C4CC[C@H]3[C@@H]1CC[C@@]2(O)C(F)(F)C(F)(F)F [Example 56, (8S,11R,13S,14S,17S)-17-hydroxy-11-[4-(4-methanesulphonylphenylethynyl)phenyl]-13-methyl-17-pentafluoroethyl-1,2,6,7,8,11,12,13,14,15,16,17-dodecahydrocyclopenta[a]phenanthren-3-one] | – | 0.08 nM | 0.01 nM | – | – |
| Cc1noc(C)c1NC(=O)NCC#Cc1ccc([C@H]2C[C@@]3(C)C(CC[C@@]3(O)C(F)(F)C(F)(F)F)C3CCC4=CC(=O)CCC4=C32)cc1 (stereo partly drawn) [Example 28, 1-(3,5-dimethylisoxazol-4-yl)-3-{3-[4-((8S,11R,13S,14S,17S)-17-hydroxy-13-methyl-3-oxo-17-pentafluoroethyl-2,3,6,7,8,11,12,13,14,15,16,17-dodecahydro-1H-cyclopenta[a]phenanthren-1′-yl)phenyl]prop-2-ynyl}urea] | 0.04 nM | 0.08 nM | – | – | – |

Now from value to compound, other results behind:

| IC50 ([1]; read-out: IC50 PR-A) | IC50 ([2]; read-out: IC50 PR-B) | IC50 ([1]; antagonistic potency vs 0.1 nmol/l promegestone, SK-N-MC cells, 24 hours, read-out: IC50 PR-A) | Structure (SMILES) | IC50 [1] | IC50 [2] |
| --- | --- | --- | --- | --- | --- |
| 0.01 nM | 0.01 nM | – | C[C@]12C[C@H](c3ccc(C#CCOC(=O)Nc4ccccc4)cc3)C3=C4CCC(=O)C=C4CCC3C1CC[C@@]2(O)C(F)(F)C(F)(F)F (stereo partly drawn) [Example 46, phenylcarbamic acid 3-[4-((8S,11R,13S,14S,17S)-17-hydroxy-13-methyl-3-oxo-17-pentafluoroethyl-2,3,6,7,8,11,12,13,14,15,16,17-dodecahydro-1H-cyclopenta[a]phenanthren-1′-yl)phenyl]prop-2-ynyl ester] | – | – |
| 0.01 nM | 0.07 nM | – | COc1ccc(NC(=O)OCC#Cc2ccc([C@H]3C[C@@]4(C)C(CC[C@@]4(O)C(F)(F)C(F)(F)F)C4CCC5=CC(=O)CCC5=C43)cc2)cc1 (stereo partly drawn) [Example 52, 4-methoxyphenylcarbamic acid 3-[4-((8S,11R,13S,14S,17S)-17-hydroxy-13-methyl-3-oxo-17-pentafluoroethyl-2,3,6,7,8,11,12,13,14,15,16,17-dodecahydro-1H-cyclopenta[a]phenanthren-1′-yl)phenyl]prop-2-ynyl ester] | – | – |
| 0.01 nM | 0.01 nM | – | Cc1ccc(NC(=O)OCC#Cc2ccc([C@H]3C[C@@]4(C)C(CC[C@@]4(O)C(F)(F)C(F)(F)F)C4CCC5=CC(=O)CCC5=C43)cc2)cc1 (stereo partly drawn) [Example 47, 4-methylphenylcarbamic acid 3-[4-((8S,11R,13S,14S,17S)-17-hydroxy-13-methyl-3-oxo-17-pentafluoroethyl-2,3,6,7,8,11,12,13,14,15,16,17-dodecahydro-1H-cyclopenta[a]phenanthren-1′-yl)phenyl]prop-2-ynyl ester] | – | – |
| 0.26 nM | 0.2 nM | – | C[C@]12C[C@H](c3ccc(C#CCOC(=O)Nc4ccc(Cl)cc4)cc3)C3=C4CCC(=O)C=C4CCC3C1CC[C@@]2(O)C(F)(F)C(F)(F)F (stereo partly drawn) [Example 55, 4-chlorophenylcarbamic acid 3-[4-((8S,11R,13S,14S,17S)-17-hydroxy-13-methyl-3-oxo-17-pentafluoroethyl-2,3,6,7,8,11,12,13,14,15,16,17-dodecahydro-1H-cyclopenta[a]phenanthren-1′-yl)phenyl]prop-2-ynyl ester] | – | – |
